From publication PMC10180197, “Novel Pyrimidine Derivatives as Antioxidant and Anticancer Agents: Design, Synthesis and Molecular Modeling Studies” (Molecules, 2023)

Columns and labels:
HaCaT cell line = assay: MTT cell viability assay, HaCaT; type: cell-based, human; settings: 100 μΜ, 24 h
Description: (§1) The MTT (3-(4,5-dimethylthiazol-2-yl)-2,5-diphenyltetrazolium bromide) assay is a colorimetric method that is used for the evaluation of cell viability. MTT is converted into colored formazan crystals, indicating the activity of mitochondria and therefore the viability of the cells. Unlike dead cells, the metabolic processes of living cells are functional, meaning that the dehydrogenase enzymes are able to reduce the yellow MTT salt solution to purple crystals, at 37 °C. The intensity of the sample’s color, due to the amount of formazan crystals, is proportional to the number of the living cells in it. Additionally, the colored product is dissolved in various solubilizing agents, such as dimethyl sulfoxide (DMSO). The colored products can be quantitatively measured at 450 nm with a plate reader spectrophotometer. In this study, the human epidermal keratinocyte cell line (HaCaT) was treated with different concentrations (100 μM, 50 μM, 10 μM and 1 μM) of the tested compounds and then the viability rates at each effect were calculated.
(§2) Τhe MTT assay was used to evaluate cell viability or cell toxicity, depending on the cell line being tested. The experimental procedure was performed in a 96-well plate, where the cells were seeded and incubated (37 °C, 5% CO2) for 24 h to grow and cover the surface of the wells. Τhe seeding concentrations for the HaCaT and A549 cells were 30 × 10^4 cells/mL and 20 × 10^4 cells/mL, respectively. After the first incubation, the solutions of the compounds (with different concentrations) were added to the adherent cells and incubated for another 24 h. The compounds were tested in triplicate against the control (only cells in medium), the blank (only medium) and the positive/negative control (cells in 100 μM silibinin solution) triplicates. Silibinin, a flavonoid with known anticancer activities, was used as a negative control for the cell viability assay and as positive control for the cytotoxicity testing assay. The light-sensitive MTT-standard solution was prepared by dissolving 1 mg/mL MTT in PBS and then filtrated (in a […] filter (Millipore, Carrigtwohill, Ireland)). On the third day, an appropriate amount of ΜΤΤ solution was added to each well and the plate was incubated for 4 h. During the incubation time, the formazan crystals were formed, which were then dissolved with 100 μL DMSO per well. Finally, the plate was stirred for 30 min, and the optical density (OD) was measured in a plate reader spectrophotometer at 450 nm.

[1] = MTT cell viability assay, HaCaT; type: cell-based, human; settings: human, HaCaT cells (epidermal keratinocyte cell line); for viability at 24 h, 10 μM: 10 μΜ; for viability at 24 h, 50 μM: 50 μΜ
Description: as §1, §2

A549 cell line = assay: MTT cytotoxicity assay, A549; type: cell-based, human; settings: 24 h; for cytotoxicity at 10 µM / cytotoxicity at 50 µM / cytotoxicity at 100 µM: Homo sapiens; for cytotoxicity at 10 µM: read-out: % Cell Toxicity 10 μΜ; for cytotoxicity at 50 µM: read-out: % Cell Toxicity 50 μΜ; for cytotoxicity at 100 µM: A549, 100 μΜ, read-out: % Cell Toxicity 100 μΜ
Description: The compounds of this study were also tested for their cytotoxic effects against the adenocarcinomic human alveolar basal epithelial cell line (A549) at different concentrations (100 μM, 75 μΜ, 50 μM and 10 μM).
as §2

[2] = Reducing activity of the stable radical DPPH
Description: All the synthesized compounds were studied for their ability to interact with the stable free 2,2-diphenyl-1-picrylhydrazyl radical (DPPH) at a concentration of 100 μM after 20 min and 60 min (Table 4). This assay is based on the reduction of DPPH by transferring one electron from the antioxidant.
In vitro study was performed as reported previously by our group. In this experiment, 20 μL of the tested compound (from the stock solution), 980 μL EtOH and 1 mL ethanolic solution of DPPH (100 μM) were added in a testing tube in a final volume of 2 mL. The free radical scavenging ability was evaluated by recording the change of absorbance at 517 nm, produced by the reduction of DPPH, after 20 and 60 min at room temperature.

[3] = Experimental determination of lipophilicity as RM values (RP-TLC); type: physicochemical; settings: methanol/water 70/30 v/v, 24 °C, SD < 10%
Excerpt: Lipophilicity is an important physicochemical parameter of a drug candidate, linking solubility and membrane permeability with the ADMET (absorption, distribution, metabolism, elimination and toxicity) properties and the overall suitability of a molecule. Reversed-phase thin-layer chromatography was the method used to experimentally determine the lipophilic character of the synthesized compounds as RM values (Table 2). Lipophilicity was also theoretically calculated as clog P values using the Bio-Loom program of BioByte Corp (http://www.biobyte.com/, (accessed on 1 March 2023)). An attempt was made to correlate the experimental RM values with the theoretically calculated clog P values (Table 2). […] This disagreement could be attributed to several factors, e.g., different solvation, silanophilic interactions and hydrogen bonding.
Lipophilicity as RM values was determined through reversed-phase TLC (RP-TLC) on silica gel plates impregnated with 5% v/v liquid paraffin in light petroleum ether. Methanol/water mixture (70/30, v/v) was used as mobile phase. Closed chromatography tanks saturated with the mobile phase at 24 °C were used for the development of the plates while the spots were detected under UV light. For the determination of RM values, five individual measurements of Rf values were recorded, and the RM values were derived from the following Equation (1). (1) RM=log1/Rf−1

[4] = Inhibition of AAPH induced linoleic acid peroxidation
Description: For the lipid peroxidation study, 2,2′-Azobis(2-methylpropionamidine) dihydrochloride (AAPH) was used as the generator of peroxy radicals and sodium linoleate as the substrate that undergoes peroxidation. The conversion of linoleic acid to 13-hydroperoxy-linoleic acid was recorded at 234 nm. The change of absorbance reflects the possible antioxidant activity of the tested compounds, in comparison with the reference compound, Trolox.
In vitro study was performed as reported previously by our group. AAPH was used as a free radical generator of alkyl peroxyl radicals. For this experimental procedure, 10 μL of the tested compound (from the stock solution), 10 μL sodium linoleate (16 mM), 50 μL AAPH (40 mM) and 930 μL phosphate-buffered solution (pH 7.4) were added in a UV cuvette (1 mL), pre thermostated at 37 °C. The ability of the compounds to prevent the oxidation of linoleic acid from alkyl peroxyl radicals was evaluated by recording the change of absorbance at 234 nm, due to the conversion of linoleic acid to 13-hydroperoxy-linoleic acid. Trolox was used as the reference.

## O=C(/C=C/c1ccccc1)c1ccccc1 [Compound 1a, (E)-1,3-diphenylprop-2-en-1-one]
HaCaT cell line
  % Cell Viability 100 μΜ: no
[1]
  viability at 24 h, 10 μM: 55.1%
A549 cell line; A549, 10 μΜ
  cytotoxicity at 10 µM: 41.8%
A549 cell line; A549, 50 μΜ
  cytotoxicity at 50 µM: 81.6%
A549 cell line
  cytotoxicity at 100 µM: 100%
[2]
  RA % 100 μM 20 min: 22%
  RA % 100 μM 60 min: no
[3]
  RM: −0.57
[4]
  AAPH % Inhibition 100 μM: 6%

## O=C(/C=C/c1ccccc1)c1ccc(Cl)cc1 [Compound 1b, (E)-1-(4-chlorophenyl)-3-phenylprop-2-en-1-one]
HaCaT cell line
  % Cell Viability 100 μΜ: no
[1]
  viability at 24 h, 10 μM: 28.1%
A549 cell line; A549, 10 μΜ
  cytotoxicity at 10 µM: 49.2%
A549 cell line; A549, 50 μΜ
  cytotoxicity at 50 µM: 88.1%
A549 cell line
  cytotoxicity at 100 µM: 100%
[2]
  RA % 100 μM 20 min: no
  RA % 100 μM 60 min: 4%
[3]
  RM: −0.50
[4]
  AAPH % Inhibition 100 μM: 51%

## O=C(/C=C/c1cccs1)c1ccc(Cl)cc1 [Compound 1d, (E)-1-(4-chlorophenyl)-3-(thiophen-2-yl)prop-2-en-1-one]
HaCaT cell line
  % Cell Viability 100 μΜ: no
[1]
  viability at 24 h, 10 μM: 72.8%
  viability at 24 h, 50 μM: 53%
A549 cell line; A549, 10 μΜ
  cytotoxicity at 10 µM: 47.4%
A549 cell line; A549, 50 μΜ
  cytotoxicity at 50 µM: 83.2%
A549 cell line
  cytotoxicity at 100 µM: 100%
[2]
  RA % 100 μM 20 min: no
  RA % 100 μM 60 min: no
[3]
  RM: −0.46
[4]
  AAPH % Inhibition 100 μM: 8%

## O=C(/C=C/c1ccc(Cl)cc1)c1ccccc1 [Compound 1e, (E)-3-(4-chlorophenyl)-1-phenylprop-2-en-1-one]
HaCaT cell line
  % Cell Viability 100 μΜ: no
[1]
  viability at 24 h, 10 μM: 100%
  viability at 24 h, 50 μM: 89.9%
A549 cell line; A549, 50 μΜ
  cytotoxicity at 50 µM: 6.8%
A549 cell line
  cytotoxicity at 100 µM: 36.8%
[2]
  RA % 100 μM 20 min: no
  RA % 100 μM 60 min: no
[3]
  RM: −0.50
[4]
  AAPH % Inhibition 100 μM: 4%

## O=C(/C=C/c1ccc(Cl)cc1)c1ccc(Cl)cc1 [Compound 1f, (E)-1,3-bis(4-chlorophenyl)prop-2-en-1-one]
HaCaT cell line
  % Cell Viability 100 μΜ: no
[1]
  viability at 24 h, 10 μM: 100%
  viability at 24 h, 50 μM: 57%
A549 cell line; A549, 10 μΜ
  cytotoxicity at 10 µM: 48.9%
A549 cell line; A549, 50 μΜ
  cytotoxicity at 50 µM: 67.6%
A549 cell line
  cytotoxicity at 100 µM: 100%
[2]
  RA % 100 μM 20 min: no
  RA % 100 μM 60 min: no
[3]
  RM: −0.24
[4]
  AAPH % Inhibition 100 μM: 51%

## O=C(/C=C/c1ccc(Cl)cc1Cl)c1ccccc1 [Compound 1g, (E)-3-(2,4-dichlorophenyl)-1-phenylprop-2-en-1-one]
[1]
  viability at 24 h, 10 μM: 100%
  viability at 24 h, 50 μM: 32.7%
[1]; 100 μΜ
  viability at 24 h, 100 μM: 2.1%
A549 cell line; A549, 10 μΜ
  % Cell Toxicity 10 μΜ: no
A549 cell line; A549, 50 μΜ
  % Cell Toxicity 50 μΜ: no
A549 cell line
  cytotoxicity at 100 µM: 10.8%
[2]
  RA % 100 μM 20 min: 2%
  RA % 100 μM 60 min: 8%
[3]
  RM: −0.21
[4]
  AAPH % Inhibition 100 μM: 39%

## O=C(/C=C/c1ccc(Cl)cc1Cl)c1ccc(Cl)cc1 [Compound 1h, (E)-1-(4-chlorophenyl)-3-(2,4-dichlorophenyl)prop-2-en-1-one]
HaCaT cell line
  % Cell Viability 100 μΜ: no
[1]
  viability at 24 h, 10 μM: 25.4%
A549 cell line; A549, 10 μΜ
  cytotoxicity at 10 µM: 49.1%
A549 cell line; A549, 50 μΜ
  cytotoxicity at 50 µM: 81.1%
A549 cell line
  cytotoxicity at 100 µM: 100%
[2]
  RA % 100 μM 20 min: no
  RA % 100 μM 60 min: no
[3]
  RM: −0.05
[4]
  AAPH % Inhibition 100 μM: 2%

## O=c1[nH]c(=S)[nH]c2nc(-c3ccccc3)cc(-c3ccccc3)c12 [Compound 2a, 5,7-diphenyl-2-thioxo-2,3-dihydropyrido [2,3-d]pyrimidin-4(1H)-one]
HaCaT cell line
  % Cell Viability 100 μΜ: no
[1]
  viability at 24 h, 10 μM: 100%
  viability at 24 h, 50 μM: 85.6%
A549 cell line; A549, 10 μΜ
  cytotoxicity at 10 µM: 56.4%
A549 cell line; A549, 50 μΜ
  cytotoxicity at 50 µM: 75%
A549 cell line
  cytotoxicity at 100 µM: 80.9%
[2]
  RA % 100 μM 20 min: 29%
  RA % 100 μM 60 min: 56%
[3]
  RM: −0.95
[4]
  AAPH % Inhibition 100 μM: 52%

## O=c1[nH]c(=S)[nH]c2nc(-c3ccc(Cl)cc3)cc(-c3ccccc3)c12 [Compound 2b, 7-(4-chlorophenyl)-5-phenyl-2-thioxo-2,3-dihydropyrido [2,3-d]pyrimidin-4(1H)-one]
HaCaT cell line
  % Cell Viability 100 μΜ: no
[1]
  viability at 24 h, 10 μM: 75.1%
  viability at 24 h, 50 μM: 26%
A549 cell line; A549, 10 μΜ
  cytotoxicity at 10 µM: 47.9%
A549 cell line; A549, 50 μΜ
  cytotoxicity at 50 µM: 83.5%
A549 cell line
  cytotoxicity at 100 µM: 100%
[2]
  RA % 100 μM 20 min: no
  RA % 100 μM 60 min: 1%
[3]
  RM: −0.87
[4]
  AAPH % Inhibition 100 μM: 62%

## O=c1[nH]c(=S)[nH]c2nc(-c3ccccc3)cc(-c3cccs3)c12 [Compound 2c, 7-phenyl-5-(thiophen-2-yl)-2-thioxo-2,3-dihydropyrido [2,3-d]pyrimidin-4(1H)-one]
HaCaT cell line
  % Cell Viability 100 μΜ: no
[1]
  viability at 24 h, 10 μM: 16.1%
A549 cell line; A549, 10 μΜ
  cytotoxicity at 10 µM: 49.4%
A549 cell line; A549, 50 μΜ
  cytotoxicity at 50 µM: 63.6%
A549 cell line
  cytotoxicity at 100 µM: 100%
[2]
  RA % 100 μM 20 min: 14%
  RA % 100 μM 60 min: 10%
[3]
  RM: −0.83
[4]
  AAPH % Inhibition 100 μM: 52%

## O=c1[nH]c(=S)[nH]c2nc(-c3ccc(Cl)cc3)cc(-c3cccs3)c12 [Compound 2d, 7-(4-chlorophenyl)-5-(thiophen-2-yl)-2-thioxo-2,3-dihydropyrido [2,3-d]pyrimidin-4(1H)-one]
HaCaT cell line
  % Cell Viability 100 μΜ: no
[1]
  viability at 24 h, 10 μM: 50%
A549 cell line; A549, 10 μΜ
  cytotoxicity at 10 µM: 48.6%
A549 cell line; A549, 50 μΜ
  cytotoxicity at 50 µM: 100%
A549 cell line
  cytotoxicity at 100 µM: 100%
[2]
  RA % 100 μM 20 min: no
  RA % 100 μM 60 min: no
[3]
  RM: −0.80
[4]
  AAPH % Inhibition 100 μM: 62%

## O=c1[nH]c(=S)[nH]c2nc(-c3ccccc3)cc(-c3ccc(Cl)cc3)c12 [Compound 2e, 5-(4-chlorophenyl)-7-phenyl-2-thioxo-2,3-dihydropyrido [2,3-d]pyrimidin-4(1H)-one]
HaCaT cell line
  % Cell Viability 100 μΜ: no
[1]
  viability at 24 h, 10 μM: 22.9%
A549 cell line; A549, 10 μΜ
  cytotoxicity at 10 µM: 48%
A549 cell line; A549, 50 μΜ
  cytotoxicity at 50 µM: 83.9%
A549 cell line
  cytotoxicity at 100 µM: 82.1%
[2]
  RA % 100 μM 20 min: 24%
  RA % 100 μM 60 min: 42%
[3]
  RM: −0.87
[4]
  AAPH % Inhibition 100 μM: 33%
